According to paper PMC3496387 (Molecular pharmaceutics, 2009):
Read-outs that look alike come from different tables or passages of the source.

Key:
[1] = n=3
[2] = Stability in rat intestinal; assay type: in vitro ADME; details: rat intestinal perfusate, similar conditions, control compound
[3] = isotonic buffer pH 1.2, 37°C, * = estimated half lives
[4] = isotonic buffer pH 4.0, 37°C, * = estimated half lives
[5] = isotonic buffer pH 6.0, 37°C, * = estimated half lives

Half lives, t1/2 [1, 3] | Half lives, t1/2 [1, 4] | Half lives, t1/2 [1, 5] [min] | SMILES | Half lives, t1/2 ([1]; isotonic buffer pH 7.4, 37°C) [min] | time to complete hydrolysis [2] [h]
– | – | – | CC(C)C[C@H](NC(=O)[C@H](Cc1ccccc1)NC(=O)CNC(=O)CNC(=O)[C@@H](N)Cc1ccc(O)cc1)C(=O)O [leu-enkephalin] | – | ≤ 1
1732 min | 3465 ^* min | 385 ± 19 | CC(OC(=O)c1ccccc1)OC(=O)[C@@H](N)Cc1ccccc1 (stereo partly drawn) [BA-Et-Phe, 1-((S)-2-amino-3-phenylpropanoyloxy) ethyl benzoate] | 24 ± 2 | –
193 min | 385 min | 2.1 | NC(Cc1ccccc1)C(=O)OCOC(=O)c1ccccc1 (stereo not drawn) [BA-Me-Phe, (2-amino-3-phenylpropanoyloxy) methyl benzoate] | – | –

SMILES | Half lives, t1/2 [1, 3] | Half lives, t1/2 [1, 4] | Half lives, t1/2 [1, 5] [min] | Half lives, t1/2 ([1]; isotonic buffer pH 7.4, 37°C) [min] | time to complete hydrolysis [2] [h]
CC(OC(=O)Cc1ccccc1)OC(=O)C(N)C(C)C (stereo not drawn) [PA-Et-Val, 1-(2-phenylacetoxy) ethyl 2-amino-3-methylbutanoate] | 11550 ^* min | 23100 ^* min | 1732.5 | 50 ± 14.8 | –
